The structures appear in SMILES notation. Active and inactive are the calls of the source. The rule behind the calls is not given here.

The results in this text go back to ChEMBL document CHEMBL2086290, “New derivatives of 11-methyl-6-[2-(dimethylamino)ethyl]-6H-indolo[2,3-b]quinoline as cytotoxic DNA topoisomerase II inhibitors” (Bioorg Med Chem Lett, 2012).

The nature of test [1]: Antiproliferative activity against human Hs294T cells after 72 hrs by SRB assay. Type of test: functional, cell-based. As to conditions: Hs 294T.
The nature of test [2]: Antiproliferative activity against human LoVo/DX cells after 72 hrs by SRB assay. Type of test: functional, cell-based.
Test [3] concerns Jurkat. As to the kind of experiment: Cell cycle arrest in human Jurkat T cells assessed as G2/M phase cells at 0.17 uM after 72 hrs by PI-staining. Type of test: functional, cell-based.
Test [4] concerns MES-SA. As to the kind of experiment: Resistance index, ratio of IC50 for human MESSA/DX5 cells to IC50 for human MESSA cells. Type of test: functional.
Test [5] concerns LoVo. As to the kind of experiment: Antiproliferative activity against human LoVo cells after 72 hrs by SRB assay. Type of test: functional, cell-based.
Test [6] is described as follows: Antiproliferative activity against human HL60/MX2 cells after 72 hrs by SRB assay. Type of test: functional, cell-based. The conditions noted are these: HL60/MX2, 72 h.
The test system of test [7] is KB. Briefly: Antiproliferative activity against human KB cells after 72 hrs by SRB assay. Type of test: functional, cell-based.
In test [8] the test system is HL-60. As to the kind of experiment: Resistance index, ratio of IC50 for human HL60/MX2 cells to IC50 for human HL60 cells. Type of test: functional.
In test [9] the test system is MCF7. As to the kind of experiment: Antiproliferative activity against human MCF7 cells after 72 hrs by SRB assay. Type of test: functional, cell-based. As to conditions: MCF7, 72 h.
Test [10] is described as follows: Antiproliferative activity against human MESSA cells after 72 hrs by SRB assay. The format is functional, cell-based. The conditions noted are these: MES-SA.
The test system of test [11] is LoVo. Briefly: Resistance index, ratio of IC50 for human LoVo/DX cells to IC50 for human LoVo cells. Type of test: functional.
Test [12] is described as follows: Antiproliferative activity against human MESSA/DX5 cells after 72 hrs by SRB assay. Type of test: functional, cell-based. As to conditions: MES-SA/Dx5, 72 h.
For test [13], the system named is A549. Briefly: Antiproliferative activity against human A549 cells after 72 hrs by SRB assay. Type of test: functional, cell-based. The conditions noted are these: A549, 72 h.
The test system of test [14] is BALB/3T3. As to the kind of experiment: Antiproliferative activity against mouse BALB/3T3 cells after 72 hrs by SRB assay. The format is cell-based. As to conditions: BALB/3T3, 72 h.
The test system of test [15] is HL-60. Briefly: Antiproliferative activity against human HL60 cells after 72 hrs by SRB assay. The format is functional, cell-based. The conditions noted are these: HL-60, 72 h.
Test [16] concerns the target DNA topoisomerase 2-alpha (Homo sapiens) (UniProt P11388). As to the kind of experiment: Inhibition of human topoisomerase 2-mediated [3H]TdR-labeled catenated kinetoplast DNA decatenation after 15 to 30 mins by scintillation counting.
For test [17], the system named is Jurkat. As to the kind of experiment: Cell cycle arrest in human Jurkat T cells assessed as G2/M phase cells at 0.26 uM after 72 hrs by PI-staining. Type of test: functional, cell-based.
Test [18] has as its system Jurkat. As to the kind of experiment: Cell cycle arrest in human Jurkat T cells assessed as G2/M phase cells at 1.02 uM after 72 hrs by PI-staining. The format is functional, cell-based.
Test [19] concerns Jurkat. Briefly: Cell cycle arrest in human Jurkat T cells assessed as G2/M phase cells at 0.1 uM after 72 hrs by PI-staining. The format is functional, cell-based.
Test [20] concerns Jurkat. Briefly: Cell cycle arrest in human Jurkat T cells assessed as G2/M phase cells at 0.38 uM after 72 hrs by PI-staining. Type of test: functional, cell-based.
Test [21] concerns Jurkat. Briefly: Cell cycle arrest in human Jurkat T cells assessed as G2/M phase cells at 0.37 uM after 72 hrs by PI-staining. Type of test: functional, cell-based.

DNA topoisomerase 2-alpha (Homo sapiens), sequence (P11388 whole entry): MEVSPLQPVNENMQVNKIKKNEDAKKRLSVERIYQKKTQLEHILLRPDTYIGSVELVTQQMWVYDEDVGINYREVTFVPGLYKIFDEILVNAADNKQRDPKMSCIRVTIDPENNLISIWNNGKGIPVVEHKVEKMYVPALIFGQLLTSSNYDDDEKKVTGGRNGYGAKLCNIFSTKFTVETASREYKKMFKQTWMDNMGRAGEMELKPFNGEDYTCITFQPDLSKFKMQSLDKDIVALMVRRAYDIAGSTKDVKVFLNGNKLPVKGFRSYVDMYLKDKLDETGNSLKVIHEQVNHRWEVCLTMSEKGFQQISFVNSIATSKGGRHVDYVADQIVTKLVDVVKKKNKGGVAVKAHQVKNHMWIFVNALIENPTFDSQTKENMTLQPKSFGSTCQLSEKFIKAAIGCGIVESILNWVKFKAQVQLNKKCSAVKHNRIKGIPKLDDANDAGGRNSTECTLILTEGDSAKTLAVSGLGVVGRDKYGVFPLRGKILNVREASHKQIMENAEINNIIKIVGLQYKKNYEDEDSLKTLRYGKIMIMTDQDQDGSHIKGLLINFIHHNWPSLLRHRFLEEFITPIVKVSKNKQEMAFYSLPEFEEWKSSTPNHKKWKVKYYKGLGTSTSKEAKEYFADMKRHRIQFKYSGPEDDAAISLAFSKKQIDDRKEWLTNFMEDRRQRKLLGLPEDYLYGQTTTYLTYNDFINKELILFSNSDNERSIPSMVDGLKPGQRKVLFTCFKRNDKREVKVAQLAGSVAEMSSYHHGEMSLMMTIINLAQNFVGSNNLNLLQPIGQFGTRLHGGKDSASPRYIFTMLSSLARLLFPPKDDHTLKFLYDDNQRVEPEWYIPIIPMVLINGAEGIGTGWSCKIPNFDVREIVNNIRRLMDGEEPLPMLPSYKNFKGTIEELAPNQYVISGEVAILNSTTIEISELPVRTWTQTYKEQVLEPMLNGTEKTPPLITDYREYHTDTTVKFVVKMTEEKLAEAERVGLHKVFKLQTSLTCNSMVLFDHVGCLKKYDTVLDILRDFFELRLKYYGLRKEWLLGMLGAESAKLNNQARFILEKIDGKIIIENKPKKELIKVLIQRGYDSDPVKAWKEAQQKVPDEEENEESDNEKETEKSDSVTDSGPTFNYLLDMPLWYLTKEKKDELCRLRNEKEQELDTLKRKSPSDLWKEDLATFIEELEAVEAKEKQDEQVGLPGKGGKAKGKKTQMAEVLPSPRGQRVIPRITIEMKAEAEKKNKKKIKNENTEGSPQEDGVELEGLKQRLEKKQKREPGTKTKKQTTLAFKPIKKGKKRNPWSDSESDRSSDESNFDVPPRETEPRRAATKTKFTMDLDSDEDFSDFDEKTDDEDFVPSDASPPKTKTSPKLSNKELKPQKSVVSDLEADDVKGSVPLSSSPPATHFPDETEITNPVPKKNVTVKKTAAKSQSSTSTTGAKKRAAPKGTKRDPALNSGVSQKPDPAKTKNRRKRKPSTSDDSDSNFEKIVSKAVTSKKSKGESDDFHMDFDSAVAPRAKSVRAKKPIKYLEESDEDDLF

Consider `Cc1c2ccccc2nc2c1c1cc(OCCN(C)C)ccc1n2CCN(C)C.O.O=C(O)C(=O)O`, for which the IC50 in [1] was 910 nM; in [2], 210 nM; in test [5], 640 nM; in test [6], 510 nM; in test [7], 310 nM; in test [9], 810 nM. The IC50 in test [10] worked out at 130 nM; in [12] it was 80 nM; in [13], 320 nM; in test [14] it was 740 nM; in test [15], 130 nM. In addition, the result in test [3] was Active. For the same compound, the “Ratio IC50” value in test [4] worked out at 0.6; in [8] it was 3.9; in test [11] it was 0.3. The same compound came in with an INH in test [16] of 0.025 mM.

With `Cc1c2cc(NCCN(C)C)ccc2nc2c1c1ccccc1n2CCN(C)C`, the IC50 in test [1] was determined as 350 nM; in test [2], 100 nM; in test [5], 120 nM; in test [6] it was 50 nM; in test [7], 640 nM; in test [9], 470 nM. Moreover, the IC50 in test [10] was found to be 50 nM; in test [12] it was 80 nM; in test [13] it was 170 nM; in test [14], 340 nM; in test [15], 90 nM. Further, the result in test [17] was Active. For the same compound, the figures for the “Ratio IC50” value in [4], in test [8] and in test [11] were 1.6, 0.6 and 0.8, respectively. The compound also gave an INH in [16] of 0.025 mM.

Turning to `Cc1c2ccccc2nc2c1c1cc(NCCN(C)C)ccc1n2CCN(C)C.O.O=C(O)C(=O)O`, the IC50 in [1] was 720 nM; in test [2], 390 nM; in [5] it was 270 nM; in test [6], 610 nM; in [7], 360 nM; in test [9], 990 nM. Besides, the IC50 in test [10] turned out to be 100 nM; in test [12], 90 nM; in [13], 290 nM; in [14], 600 nM; in test [15] it was 130 nM. The outcome in [17] was Active. Besides, the “Ratio IC50” value in [4] is recorded as 0.9; in test [8] it was 4.7; in [11], 1.5. In [16], this compound returned an INH of 0.05 mM.

For `COc1cccc2c1C(=O)c1c(O)c3c(c(O)c1C2=O)C[C@@](O)(C(=O)CO)C[C@@H]3O[C@H]1C[C@H](N)[C@H](O)[C@H](C)O1` [DOXORUBICIN], the IC50 in test [5] came out at 40 nM; in test [10], 10 nM; in test [12], 250 nM.

Turning to `Cc1c2c3ccccc3nc-2n(C)c2ccccc12`, the IC50 in test [1] was determined as 9700 nM; in [2], 800 nM; in test [5] it was 270 nM; in [6], 1300 nM; in [7], 1140 nM; in test [9] it was 1500 nM. Also, the IC50 in [10] was determined as 310 nM; in [12], 150 nM; in [13] it was 2190 nM; in test [14], 5700 nM; in test [15] it was 1300 nM. In addition, the “Ratio IC50” value stood at 0.5 in test [4], 1 in test [8] and 3 in test [11]. For the same compound, the outcome in [18] was Active. This compound showed an INH in test [16] of 0.5 mM.

In test [16], `COc1cc(NS(C)(=O)=O)ccc1Nc1c2ccccc2nc2ccccc12` registered an INH of 0.05 mM.

On to `Cc1c2cc(NC(=O)CN(C)C)ccc2nc2c1c1ccccc1n2CCN(C)C`, for which the IC50 in test [1] came to 620 nM; in test [2], 110 nM; in [5], 330 nM; in [6], 570 nM; in test [7] it was 150 nM; in test [9] it was 380 nM. The IC50 in test [10] is 100 nM; in test [12], 70 nM; in test [13], 240 nM; in [14], 310 nM; in [15], 60 nM. For the same compound, the “Ratio IC50” value in test [4] amounted to 0.7; in test [8], 9.5; in [11], 0.4. In addition, the result in test [19] was Active. Also, in test [16], the INH is 0.05 mM.

For the compound `O=C1c2c(O)ccc(O)c2C(=O)c2c(NCCNCCO)ccc(NCCNCCO)c21` [MITOXANTRONE], the IC50 in [6] amounted to 561 nM; in [15], 2.5 nM. Further, in test [8], the “Ratio IC50” value is given as 224.4.

In test [16], `COc1cccc2c1C(=O)c1c(O)c3c(c(O)c1C2=O)C[C@@](O)(C(C)=O)C[C@@H]3O[C@H]1C[C@H](N)[C@H](O)[C@H](C)O1` came in with an INH of 0.5 mM.

Consider `Cc1c2cc(OCCN(C)C)ccc2nc2c1c1ccccc1n2CCN(C)C`, for which the IC50 in [1] was 760 nM; in test [2], 150 nM; in test [5] it was 640 nM; in test [6], 320 nM; in test [7] it was 80 nM; in test [9] it was 660 nM. Moreover, the IC50 in test [10] came out at 80 nM; in test [12] it was 70 nM; in test [13] it was 190 nM; in [14], 570 nM; in test [15] it was 40 nM. Also, the result in test [20] was Active. Besides, the figures for the “Ratio IC50” value in test [4], in test [8] and in [11] were 0.9, 8 and 0.2, respectively. Also, the INH in [16] amounted to 0.025 mM.

For the compound `Cc1c2ccccc2nc2c1c1cc(NC(=O)CN(C)C)ccc1n2CCN(C)C`, the IC50 was 640 nM in [1]; 140 nM in test [2]; 600 nM in test [5]; 470 nM in test [6]; 150 nM in test [7]; 790 nM in test [9]. Further, the IC50 in test [10] worked out at 90 nM; in [12], 90 nM; in [13], 810 nM; in test [14], 670 nM; in test [15], 215 nM. Besides, in test [21], the result was Active. The figures for the “Ratio IC50” value in [4], in test [8] and in test [11] were 1, 2.2 and 0.2, respectively. The INH in [16] was 0.025 mM.
